Assay results reported in US7232646B2, “Low-viscous, radiation curable formulation, particularly for the stereo-lithographical production of earpiece” (Dreve-Otoplastik GmbH, priority 2003, dated 2007).

Test: Window pane method for critical energy Ec and laser penetration depth Dp
Type: physicochemical
Details: inhibitor added to resin formulation; for influence of inhibitor concentration on laser penetration depth Dp: FIGS. 1 and 3; for influence of inhibitor concentration on critical energy Ec: FIGS. 2 and 4
Description: Into the mixture according to the invention, 2,2,6,6-tetramethylpiperdine-1-yloxy (free radical) is added. The influence of the concentration of the 2,2,6,6-tetramethylpiperdine-1-yloxy (free radical) in the exemplary formalation 1 upon the penetration depth of the laser beam and energy has been shown in FIGS. 1 and 2. The laser penetration depth and the critical energy are determined by means of the window pane method described by P. F. Jacobs and D. R. Read in Rapid Prototyping and Manufacturing of the Society of Manufacturing Engineers, Dearborn, Mich. (1992), 1st, ed., pgs. 263-280. […] This influence of the inhibitor 2,2,6,6-tetramethylpiperdine-1-yloxy (free radical) upon the relevant parameters Ec (critical energy in mJ cm^−2) and Dp (laser penetration depth in mils) of the stereolithographic resin, the effect differing from the influence of the inhibitors like, for example, hydroquinone-monomethylether which are added to stereolithographic resins in accordance with the state of the art. The influence of the hydroquinonemonomethylether on the parameters Ec and Dp in the exemplary formulations 2 is shown in FIGS. 3 and 4.
The relevant parameters for the use of the above mentioned resins in stereolithography are collected in Table 1. All viscosity measurements were carried out at 23° C. with a CVO 120 rheometer of Bohlin Instruments. The determination of the bend strength, the modulus of elasticity and the elongation were carried out in accordance with EN ISO 178 (1996) with a Zwick 1—test machine of the Zwick firm. For the determination of the Ec and Dp values by means of the above mentioned window pane method, the average value from 10 window pane sample bodies was determined. The sample bodies were produced with a Viper Si^2 SLA apparatus equipped with an ND:YVO4 solid body laser. The green bodies were after hardened with a stroboscope lighting unit Sonolux PR from Innovation Meditech by means of 4000 flashes.

Row | Compound | influence of inhibitor concentration on laser penetration depth Dp | influence of inhibitor concentration on critical energy Ec
1 | COc1ccc(O)cc1 [hydroauinonemonomethylether, hydroquinone-monomethylether] | greater than in the case of the use of the 2,2,6,6-tetramethyl piperdine-1-yloxy (free radical) | can only be adjusted by significantly higher concentrations
2 | CC1(C)CCCC(C)(C)N1[O] [2,2,6,6-tetramethylpiperdine-1-yloxy (free radical)] | only a limited change in the penetration depth | surprising increase in the critical energy
